We go through 4 molecules from patent US9682141B2, “Combination of kinase inhibitors and uses thereof” (INTELLIKINE LLC, priority 2011, dated 2017).

Series [1] relates to marginal zone B cells. Description: Marginal zone B cells in mouse spleen (FACS). In kind it is in vivo. Conditions: 70 mg/kg Pan-PI3K inhibitor, 60 mg/kg Compound A; spleens harvested 2 hrs after last dose.
Excerpt: Spleens were harvested 2 hrs after the last dose, processed and stained with appropriate antibodies (marginal zone B cell: B220+;CD23−;CD21hi) and analyzed for staining on GUAVA EasyCyte FACS machine using Guava Cytosoft 5.2 software.
Series [2] deals with anti-TNP antibody production. Description: TNP-Ficoll T-cell independent B-cell activation assay. Type of series: in vivo, mouse. The following applies: mice immunized with TNP-Ficoll; 70 mg/kg GDC0941; 30, 60, 120 mg/kg Compound A; 7 days. Here is the method:
To test the effects of the compounds of the present invention in suppressing T cell independent antibody production, the TNP-Ficoll B-cell activation assay is used as described herein. Compounds of the present invention are dissolved in an appropriate vehicle (e.g. 5% 1-methyl-2-pyrrolidinone, 85% polyethylene glycol 400, 10% Solutor). Compounds are administered orally approximately 1 hr before TNP-Ficoll treatment to 4-10 week old mice. To study the effects of the compounds on B-cell activation, one set of mice are grouped according to the following table:
Four animals in group 1, and eight animals in groups 2 to 7 are euthanized in CO2 2 hours after the last compound administration on day 7. […]
Serum samples are analyzed for anti-TNP antibody titers by ELISA as described herein. […] HRP substrate (200 μl ABTS solution+30% H2O2+10 ml citrate buffer) is added to each well at 100 μl/well, incubated 2-20 minutes in the dark and the amount of anti-TNP IgG3 is determined spectrophotometrically at 405 nm. Similarly, anti-TNP IgM and total anti-TNP Ab are determined using anti-mouse IgM-HRP and anti-mouse Ig-HRP respectively.
Antibody production was measured using ELISA and plotted as as a percentage of control group that were treated with vehicle.

For series [3], the system named is MDA-MB-361 tumors. Description: Xenogenic mouse model of breast cancer (MDA-MB-361). In kind it is in vivo. Conditions: 70 mg/kg Pan-PI3K inhibitor, 60 mg/kg Compound A.
For series [4], the target named is PI3K δ (Homo sapiens (Human), UniProt O00329). Description: PI 3-Kinase (human) HTRF assay, p110δ/p85α. Type of series: biochemical. (In TR-FRET formats the signal depends on donor and acceptor labels being close together.)
Description: (§1) An exemplary system is PI 3-Kinase (human) HTRF™ Assay from Upstate. […] Briefly, the assay is a time resolved FRET assay that indirectly measures PIP3 product formed by the activity of a PI3-K. The kinase reaction is performed in a microtitre plate (e.g., a 384 well microtitre plate). The total reaction volume is approximately 20 ul per well. In the first step, each well receives 2 ul of test compound in 20% dimethylsulphoxide resulting in a 2% DMSO final concentration. Next, approximately 14.5 ul of a kinase/PIP2 mixture (diluted in 1× reaction buffer) is added per well for a final concentration of 0.25-0.3 ug/ml kinase and 10 μM PIP2. The plate is sealed and incubated for 15 minutes at room temperature. To start the reaction, 3.5 ul of ATP (diluted in 1× reaction buffer) is added per well for a final concentration of 10 μM ATP. The plate is sealed and incubated for 1 hour at room temperature. The reaction is stopped by adding 5 ul of Stop Solution per well and then 5 ul of Detection Mix is added per well. The plate is sealed, incubated for 1 hour at room temperature, and then read on an appropriate plate reader. Data is analyzed and IC50s are generated using GraphPad Prism 5. For PI3K α, β, δ, and γ, the nM concentration of inhibitor to reach IC50 is provided.
Series [5] deals with PI3K β (Homo sapiens (Human), UniProt P42338). Description: PI 3-Kinase (human) HTRF assay, p110β/p85α. Type of series: biochemical.
Description: as §1
Series [6] deals with T47D cells. In words: T47D proliferation. In kind it is cell-based. The following applies: Homo sapiens.
In series [7] the target is PI3K γ (Homo sapiens (Human), UniProt P48736). In words: PI 3-Kinase (human) HTRF assay, p110γ. Conditions: read-out: PI3K γ IC50. In kind it is biochemical.
The target of series [8] is PI3K α (Homo sapiens (Human), UniProt P42336). In words: PI 3-Kinase (human) HTRF assay, p110α/p85α. In kind it is biochemical.
Description: as §1
For series [9] the following is noted: PBS pH 7.4, 37° C., 24 hours, 5 μM reference compound; cited from earlier work.
In series [10] the test system is PI3K/Akt/mTor signaling in blood cells. In words: Kinase signaling in blood (phosflow). In kind it is cell-based. Conditions: anti-CD3 stimulated splenocytes or PBMC. Here is the method:
PI3K/Akt/mTor signaling is measured in blood cells using the phosflow method (Methods Enzymol. 2007; 434:131-54). The advantage of this method is that it is by nature a single cell assay so that cellular heterogeneity can be detected rather than population averages. This allows concurrent dinstinction of signaling states in different populations defined by other markers. Phosflow is also highly quantitative. To test the effects of one or more compounds disclosed herein, unfractionated splenocytes, or peripheral blood mononuclear cells are stimulated with anti-CD3 to initiate T-cell receptor signaling. The cells are then fixed and stained for surface markers and intracellular phosphoproteins.
Similarly, aliquots of whole blood are incubated for 15 minutes with vehicle (e.g., 0.1% DMSO) or kinase inhibitors at various concentrations, before addition of stimuli to crosslink the T cell receptor (TCR) (anti-CD3 with secondary antibody) or the B cell receptor (BCR) using anti-kappa light chain antibody (Fab′2 fragments). After approximately 5 and 15 minutes, samples are fixed (e.g., with cold 4% paraformaldehyde) and used for phosflow. […] The level of phosphrylation of kinase substrates such as Akt and S6 are then measured by incubating the fixed cells with labeled antibodies specific to the phosphorylated isoforms of these proteins. The population of cells is then analyzed by flow cytometry.

Chain of PI3K α (P42336 whole entry): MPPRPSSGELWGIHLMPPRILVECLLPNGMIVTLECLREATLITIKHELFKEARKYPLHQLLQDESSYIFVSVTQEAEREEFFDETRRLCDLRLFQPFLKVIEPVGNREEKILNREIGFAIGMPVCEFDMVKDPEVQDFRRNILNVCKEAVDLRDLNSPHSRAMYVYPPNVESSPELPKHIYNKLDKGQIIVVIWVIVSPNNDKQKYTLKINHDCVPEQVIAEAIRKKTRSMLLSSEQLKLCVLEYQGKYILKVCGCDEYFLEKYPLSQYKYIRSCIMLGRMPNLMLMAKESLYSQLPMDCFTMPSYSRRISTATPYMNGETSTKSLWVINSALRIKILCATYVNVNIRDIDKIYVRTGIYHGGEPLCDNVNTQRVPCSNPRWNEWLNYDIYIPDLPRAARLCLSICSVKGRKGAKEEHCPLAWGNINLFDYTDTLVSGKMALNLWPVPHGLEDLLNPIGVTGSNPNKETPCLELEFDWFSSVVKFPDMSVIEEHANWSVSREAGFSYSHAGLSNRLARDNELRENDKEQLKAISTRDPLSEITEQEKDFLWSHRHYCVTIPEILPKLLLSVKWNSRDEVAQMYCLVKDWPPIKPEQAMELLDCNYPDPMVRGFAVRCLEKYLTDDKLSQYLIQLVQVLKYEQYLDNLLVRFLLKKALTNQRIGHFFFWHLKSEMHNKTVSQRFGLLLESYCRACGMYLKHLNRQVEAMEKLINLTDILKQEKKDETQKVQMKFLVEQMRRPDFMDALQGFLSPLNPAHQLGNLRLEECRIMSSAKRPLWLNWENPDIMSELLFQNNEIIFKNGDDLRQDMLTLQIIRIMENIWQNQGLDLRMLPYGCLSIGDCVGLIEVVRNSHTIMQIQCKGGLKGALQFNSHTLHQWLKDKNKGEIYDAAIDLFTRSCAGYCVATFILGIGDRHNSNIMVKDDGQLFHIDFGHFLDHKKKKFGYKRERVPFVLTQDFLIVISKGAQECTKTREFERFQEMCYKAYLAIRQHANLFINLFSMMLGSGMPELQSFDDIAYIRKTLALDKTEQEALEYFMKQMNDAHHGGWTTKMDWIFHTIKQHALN
Chain of PI3K α (P27986 whole entry partner): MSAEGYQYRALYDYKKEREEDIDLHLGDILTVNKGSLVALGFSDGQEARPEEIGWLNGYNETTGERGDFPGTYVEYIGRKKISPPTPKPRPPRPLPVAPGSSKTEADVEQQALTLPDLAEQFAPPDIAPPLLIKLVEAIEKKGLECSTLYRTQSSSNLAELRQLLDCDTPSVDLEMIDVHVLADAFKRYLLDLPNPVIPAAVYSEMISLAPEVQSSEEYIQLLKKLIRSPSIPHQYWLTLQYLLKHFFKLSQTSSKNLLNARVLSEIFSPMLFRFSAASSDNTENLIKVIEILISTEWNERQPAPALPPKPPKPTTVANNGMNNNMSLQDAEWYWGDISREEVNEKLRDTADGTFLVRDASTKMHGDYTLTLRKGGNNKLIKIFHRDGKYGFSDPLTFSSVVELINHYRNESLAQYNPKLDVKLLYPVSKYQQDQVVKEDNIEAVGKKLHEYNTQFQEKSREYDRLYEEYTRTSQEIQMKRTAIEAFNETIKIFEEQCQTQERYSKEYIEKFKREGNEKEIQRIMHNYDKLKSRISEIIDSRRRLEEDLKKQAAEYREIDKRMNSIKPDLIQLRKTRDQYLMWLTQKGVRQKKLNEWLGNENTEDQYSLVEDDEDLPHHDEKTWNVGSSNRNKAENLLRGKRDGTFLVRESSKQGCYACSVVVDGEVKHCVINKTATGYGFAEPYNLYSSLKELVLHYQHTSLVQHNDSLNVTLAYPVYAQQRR
Chain of PI3K β (P42338 whole entry): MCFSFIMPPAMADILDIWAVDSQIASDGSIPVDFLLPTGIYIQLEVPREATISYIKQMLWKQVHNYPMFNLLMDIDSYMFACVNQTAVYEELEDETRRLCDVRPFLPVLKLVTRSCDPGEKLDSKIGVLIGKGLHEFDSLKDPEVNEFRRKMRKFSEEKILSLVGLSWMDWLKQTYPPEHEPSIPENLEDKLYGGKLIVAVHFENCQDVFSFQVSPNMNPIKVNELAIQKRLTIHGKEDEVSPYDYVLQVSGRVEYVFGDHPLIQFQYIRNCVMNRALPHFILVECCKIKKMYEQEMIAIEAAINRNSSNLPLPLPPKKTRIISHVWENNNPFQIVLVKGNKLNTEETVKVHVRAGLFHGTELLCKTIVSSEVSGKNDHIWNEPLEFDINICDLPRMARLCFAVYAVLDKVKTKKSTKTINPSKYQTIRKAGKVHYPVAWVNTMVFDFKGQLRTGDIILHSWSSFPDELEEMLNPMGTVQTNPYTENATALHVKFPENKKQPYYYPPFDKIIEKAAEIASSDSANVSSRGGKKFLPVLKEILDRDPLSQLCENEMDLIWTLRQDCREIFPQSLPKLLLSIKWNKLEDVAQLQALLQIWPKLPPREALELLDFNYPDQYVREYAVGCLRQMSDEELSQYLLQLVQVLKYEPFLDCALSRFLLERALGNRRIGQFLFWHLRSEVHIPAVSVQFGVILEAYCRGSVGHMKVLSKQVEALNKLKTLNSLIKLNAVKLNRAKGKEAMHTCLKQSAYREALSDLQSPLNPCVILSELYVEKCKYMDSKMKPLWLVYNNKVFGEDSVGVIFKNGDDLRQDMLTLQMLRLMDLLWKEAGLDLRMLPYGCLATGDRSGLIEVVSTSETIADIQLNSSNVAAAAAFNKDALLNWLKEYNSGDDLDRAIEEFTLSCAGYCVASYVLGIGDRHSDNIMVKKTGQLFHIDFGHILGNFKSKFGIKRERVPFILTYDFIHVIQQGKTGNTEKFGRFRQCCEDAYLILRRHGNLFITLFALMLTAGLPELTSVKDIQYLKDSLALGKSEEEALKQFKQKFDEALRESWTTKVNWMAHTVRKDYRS
Chain of PI3K β (P27986 whole entry partner): as the sequence (P27986 whole entry partner) above
Chain of PI3K δ (O00329 whole entry): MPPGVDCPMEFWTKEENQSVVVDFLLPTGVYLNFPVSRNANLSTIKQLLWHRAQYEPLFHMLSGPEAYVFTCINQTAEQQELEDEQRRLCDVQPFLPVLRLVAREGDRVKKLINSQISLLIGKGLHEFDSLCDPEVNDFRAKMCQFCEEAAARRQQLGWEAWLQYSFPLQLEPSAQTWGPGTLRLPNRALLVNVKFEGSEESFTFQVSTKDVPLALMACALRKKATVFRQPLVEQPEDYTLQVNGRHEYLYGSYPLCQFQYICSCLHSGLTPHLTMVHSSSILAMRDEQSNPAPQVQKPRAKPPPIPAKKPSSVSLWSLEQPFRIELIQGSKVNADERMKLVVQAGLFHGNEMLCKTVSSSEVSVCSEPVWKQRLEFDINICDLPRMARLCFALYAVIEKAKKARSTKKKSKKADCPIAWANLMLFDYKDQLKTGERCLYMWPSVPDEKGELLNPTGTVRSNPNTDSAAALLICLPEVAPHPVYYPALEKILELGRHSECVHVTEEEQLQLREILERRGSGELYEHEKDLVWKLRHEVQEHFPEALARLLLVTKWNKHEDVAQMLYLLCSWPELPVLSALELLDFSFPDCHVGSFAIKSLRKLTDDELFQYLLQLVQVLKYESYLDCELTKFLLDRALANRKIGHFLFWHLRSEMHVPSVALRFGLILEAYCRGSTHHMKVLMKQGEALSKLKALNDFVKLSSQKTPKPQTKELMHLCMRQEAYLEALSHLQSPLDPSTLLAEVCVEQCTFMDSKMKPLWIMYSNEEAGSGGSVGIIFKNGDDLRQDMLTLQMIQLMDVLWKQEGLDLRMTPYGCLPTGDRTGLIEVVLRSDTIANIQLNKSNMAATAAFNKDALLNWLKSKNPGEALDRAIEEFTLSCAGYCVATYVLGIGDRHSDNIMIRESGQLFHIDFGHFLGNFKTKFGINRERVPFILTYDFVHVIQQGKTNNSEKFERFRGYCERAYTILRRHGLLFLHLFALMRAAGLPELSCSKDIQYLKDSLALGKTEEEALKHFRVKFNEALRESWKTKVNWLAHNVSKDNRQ
Chain of PI3K δ (P27986 whole entry partner): as the sequence (P27986 whole entry partner) above
Chain of PI3K γ (P48736 whole entry): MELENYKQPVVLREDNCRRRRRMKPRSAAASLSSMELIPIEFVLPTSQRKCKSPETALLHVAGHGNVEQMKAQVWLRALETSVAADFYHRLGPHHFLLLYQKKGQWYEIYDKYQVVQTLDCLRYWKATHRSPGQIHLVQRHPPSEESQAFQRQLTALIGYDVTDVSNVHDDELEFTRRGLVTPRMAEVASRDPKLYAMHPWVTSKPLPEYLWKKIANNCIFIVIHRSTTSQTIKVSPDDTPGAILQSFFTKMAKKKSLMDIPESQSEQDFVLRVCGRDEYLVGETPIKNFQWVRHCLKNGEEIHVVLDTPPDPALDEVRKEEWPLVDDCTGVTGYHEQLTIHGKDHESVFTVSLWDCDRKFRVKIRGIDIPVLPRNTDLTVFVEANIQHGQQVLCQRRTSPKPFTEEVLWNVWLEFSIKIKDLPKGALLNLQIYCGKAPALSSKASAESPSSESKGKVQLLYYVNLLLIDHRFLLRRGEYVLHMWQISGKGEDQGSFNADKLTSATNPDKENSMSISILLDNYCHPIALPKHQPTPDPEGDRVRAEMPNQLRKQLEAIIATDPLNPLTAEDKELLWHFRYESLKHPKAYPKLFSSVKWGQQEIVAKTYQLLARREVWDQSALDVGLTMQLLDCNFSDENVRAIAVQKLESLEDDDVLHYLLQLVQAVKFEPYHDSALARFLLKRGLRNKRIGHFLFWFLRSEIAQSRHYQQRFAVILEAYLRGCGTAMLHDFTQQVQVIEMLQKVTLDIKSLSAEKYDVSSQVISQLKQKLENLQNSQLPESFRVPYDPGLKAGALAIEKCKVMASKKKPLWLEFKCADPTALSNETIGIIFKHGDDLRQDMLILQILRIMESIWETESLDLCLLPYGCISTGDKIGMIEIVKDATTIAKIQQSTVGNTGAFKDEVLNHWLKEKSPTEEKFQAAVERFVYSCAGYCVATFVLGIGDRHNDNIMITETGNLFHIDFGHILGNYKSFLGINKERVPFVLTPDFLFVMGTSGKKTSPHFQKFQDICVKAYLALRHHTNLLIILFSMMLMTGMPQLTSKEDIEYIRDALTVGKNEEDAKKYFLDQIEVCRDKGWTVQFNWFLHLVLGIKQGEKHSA

Turning to `CS(=O)(=O)N1CCN(Cc2cc3nc(-c4cccc5[nH]ncc45)nc(N4CCOCC4)c3s2)CC1` [Pan-PI3K inhibitor, GDC0941], the “presence of MZB cells in mouse spleen” value in series [1] is on record as “reduced presence of MZB cells”. In addition, in series [2], the “B cell function in vivo (antibody production, % of vehicle control)” value is “blocks B cell function in vivo”. Also, the “reduction in tumor weight” value in series [3] is on record as “reduction in tumor weight”.

The term IC50 denotes the concentration that inhibits the measured activity by half. Consider `Nc1nc2cc(-c3ccc4ncc(C(=O)NC5CC5)n4c3)ccc2o1`, for which the IC50 in series [4] is < 1000 nM; in series [5], < 10 µM; in series [6] it was < 10 µM; in series [7] it was < 100 nM; in [8], < 100 nM.

Regarding `O=C(O)CCCc1ccc(N(CCCl)CCCl)cc1` [chlorambucil, 4-[bis(2-chloroethyl)amino]benzenebutanoic acid], the chemical stability entry in series [9] is given as “largely hydrolyzed over the course of 24 hours”.

On to `CO[C@H]1C[C@@H]2CC[C@@H](C)[C@@](O)(O2)C(=O)C(=O)N2CCCC[C@H]2C(=O)O[C@H]([C@H](C)C[C@@H]2CC[C@@H](O)[C@H](OC)C2)CC(=O)[C@H](C)/C=C(\C)[C@@H](O)[C@@H](OC)C(=O)[C@H](C)C[C@H](C)/C=C/C=C/C=C/1C` [rapamycin], for which, in series [10], the Akt phosphorylation result is “enhances Akt phosphorylation” and the S6 phosphorylation result is given as “inhibits S6 phosphorylation”.
